Data taken from US7141691B2, “Protein-bound derivatives of platinum complexes containing cyclobutane1, 1-dicarboxyllate ligands” (KTB Tumorforschungs GmbH, priority 2003, dated 2006).

System: MaTu (mammary carcinoma)
Test: Efficacy in vivo, MaTu tumor model in naked mice (change in tumor volume)
Conditions: DACH-Pt-CB-1-Mal 75 and 100 mg/kg i.v. once on day 7, carboplatin 100 mg/kg once on day 7 or 75 mg/kg on days 7 and 14
Protocol: The invention is elucidated in more detail by the following examples in conjunction with the figures. […] Animals: naked mice Tumor model: MaTu (mammary carcinoma) Treatment: DACH-Pt-CB-1-Mal (75 and 100 mg/kg) and carboplatin (100 mg/kg) once on day 7, carboplatin (75 mg/kg) on each of days 7 and 14; i.v. (carboplatin and derivatives each in 0.15 0.3 ml glucose phosphate buffer pH 6.5).

Structure (SMILES): O=C(CCOCCN1C(=O)C=CC1=O)OC1CC2(C1)C(=O)[O][Pt]1([NH]C3CCCC[C@H]3[NH]1)[O]C2=O (stereo partly drawn) [DACH-Pt-CB-1-Mal, trans-(R,R/S,S)-cyclohexane-1,2-diaminoplatinum(II)-[3-(6-maleinimido-4-oxacaproyl)cyclobutane-1,1-dicarboxylate]]
- in vivo efficacy (change in the tumor volume) compared to carboplatin: increased compared to carboplatin
